From patent US6673769B2, “Lanthionine bridged peptides” (priority 1991, dated 2004)
Like-named read-outs stand apart in the source and are kept apart here.

Assays:
SSTR2 receptor = test: Inhibition of radioligand binding to cloned somatostatin receptor SSTR2; conditions: for IC50: cloned receptor, radioligand binding, read-out: SSTR2 receptor binding constant IC50
SSTR4 receptor = test: Inhibition of radioligand binding to cloned somatostatin receptor SSTR4; conditions: for IC50: cloned receptor, radioligand binding, read-out: SSTR4 receptor binding constant IC50
[1] = Enzymatic degradation of enkephalin analogs (half-life)
MVD (δ-receptor) = target: T1, MVD (δ-receptor) (Mus musculus, UniProt P32300); test: cell-based
T1 construct: The vas is then mounted under 0.5 g tension in a 5 ml organ bath; from tissue; host or cells: mouse vas deferens (Swiss Webster)
T1 sequence (P32300 whole entry): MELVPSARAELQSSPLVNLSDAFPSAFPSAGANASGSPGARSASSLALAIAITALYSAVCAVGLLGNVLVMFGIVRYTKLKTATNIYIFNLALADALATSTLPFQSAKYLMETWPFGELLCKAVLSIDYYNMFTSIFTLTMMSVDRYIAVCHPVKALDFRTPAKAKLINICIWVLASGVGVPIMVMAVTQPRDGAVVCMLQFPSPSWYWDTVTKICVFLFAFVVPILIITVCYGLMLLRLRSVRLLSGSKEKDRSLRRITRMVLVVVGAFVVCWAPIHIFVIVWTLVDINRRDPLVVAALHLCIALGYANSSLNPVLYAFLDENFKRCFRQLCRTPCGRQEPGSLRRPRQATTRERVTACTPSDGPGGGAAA

δ receptor = δ receptor (Homo sapiens, UniProt P41143); test: δ-Binding, replacement of 3H-naltrindole
Chain of δ receptor (P41143 whole entry): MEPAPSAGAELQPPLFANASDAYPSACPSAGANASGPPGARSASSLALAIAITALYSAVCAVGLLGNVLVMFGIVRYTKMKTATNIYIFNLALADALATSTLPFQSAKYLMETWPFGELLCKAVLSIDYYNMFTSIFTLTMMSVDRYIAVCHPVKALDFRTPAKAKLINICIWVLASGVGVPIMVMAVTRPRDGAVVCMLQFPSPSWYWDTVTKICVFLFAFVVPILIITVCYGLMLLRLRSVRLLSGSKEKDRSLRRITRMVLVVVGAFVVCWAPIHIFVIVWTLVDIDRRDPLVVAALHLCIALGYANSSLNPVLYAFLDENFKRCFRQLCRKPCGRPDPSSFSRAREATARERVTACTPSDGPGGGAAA

[2] = inhibition of electrically evoked twitch of mouse vas deferens, read-out: MVD IC50

Compound | IC50 (SSTR2 receptor) [nM] | IC50 (SSTR4 receptor) [nM] | further results
c[AlaL3, AlaL14]-Somatostatin-14 | 0.3 |  | affinity/potency on SSTR2, in words (SSTR2 receptor): same binding affinity
H-D-Phe-c[AlaLPhe-D-Trp-Lys-Thr-AlaL]-OH |  | 500 | 
H-D-Phe-c[AlaLPhe-D-Trp-Lys-Thr-AlaL]-Thr-ol | 5 | 1 | 
NC(=O)[C@@H]1CSC[C@@H](NC(=O)[C@@H](N)Cc2ccc(O)cc2)C(=O)NCC(=O)N[C@@H](Cc2ccccc2)C(=O)N1 [Lanthionine-enkephalin] |  |  | half-life [1]: 20.4 h
H-D-Phe-c[AlaLPhe-D-Trp-Lys-Thr-AlaL]-Thr-NH2 | 10 | 0.5 | selectivity for SSTR4 (SSTR2/SSTR4 IC50) compared with the octapeptide alcohols (SSTR4 receptor): four times
C[C@H](N)C(=O)NCC(=O)N[C@H]1CSSC[C@@H](C(=O)O)NC(=O)[C@H](CO)NC(=O)[C@H]([C@@H](C)O)NC(=O)[C@H](Cc2ccccc2)NC(=O)[C@H]([C@@H](C)O)NC(=O)[C@H](CCCCN)NC(=O)[C@H](Cc2c[nH]c3ccccc23)NC(=O)[C@H](Cc2ccccc2)NC(=O)[C@H](Cc2ccccc2)NC(=O)[C@H](CC(N)=O)NC(=O)[C@H](CCCCN)NC1=O [Somatostatin-14, reference compound] | 0.28 | 0.86 | 
N[C@@H](Cc1ccc(O)cc1)C(=O)N[C@@H]1CSC[C@@H](C(=O)O)NC(=O)[C@H](Cc2ccccc2)NC(=O)CNC1=O [Tyr-c[D-AlaL-Gly-Phe-L-AlaL]-OH] |  |  | IC50 (MVD (δ-receptor)): 0.16 nM; IC50 (δ receptor): 1 nM
NC(=O)[C@H]1CSC[C@@H](NC(=O)[C@@H](N)Cc2ccc(O)cc2)C(=O)NCC(=O)N[C@@H](Cc2ccccc2)C(=O)N1 [Tyr-c[D-AlaL-Gly-Phe-D-AlaL]-NH2] |  |  | IC50 (MVD (δ-receptor); [2]): 1.67 nM
NC(=O)[C@@H]1CSC[C@@H](NC(=O)[C@@H](N)Cc2ccc(O)cc2)C(=O)NCC(=O)N[C@@H](Cc2ccccc2)C(=O)N1 [Tyr-c[D-AlaL-Gly-Phe-L-AlaL]-NH2] |  |  | IC50 (MVD (δ-receptor); [2]): 0.54 nM; IC50 (δ receptor): 7 nM
NC(=O)[C@@H]1CSSC[C@@H](NC(=O)[C@@H](N)Cc2ccc(O)cc2)C(=O)NCC(=O)N[C@@H](Cc2ccccc2)C(=O)N1 [Disulfide-enkephalin, reference compound] |  |  | half-life [1]: 5.53 h
Sandostatin [reference compound] | 2.4 | 0.57 | 
